We go through nine compounds from PubChem BioAssay (NCI).

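96-well plates; 48 h exposure; 5 concentrations. Endpoints by linear interpolation between flanking doses. Not reached: highest tested concentration assigned. Abbreviation: GI50, concentration required for 50% inhibition of growth. TGI marks complete inhibition of growth.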

Some test systems named below: NCI-H226 lung; OVCAR-5 ovarian; RPMI-8226 leukemia; SF-539 CNS; COLO 205 colon; HCC-2998 colon; A498 renal; HL-60(TB) leukemia; ACHN renal; HCT-116 colon.
Common to all, as to assay: inhibition of tumour cell growth, NCI panel, 48 h

Regarding `O=c1c2cc(Br)ccc2nc(CCl)n1-c1ccc(O)c([N+](=O)[O-])c1`, the TGI in the assay on NCI-H226 lung is 29.3 µM; with OVCAR-5 ovarian it was over 100 µM; in the assay on RPMI-8226 leukemia it was 47.8 µM; in the assay with SF-539 CNS, 33.5 µM; in the assay with COLO 205 colon, 37.8 µM; with HCC-2998 colon, 34.1 µM. For the same compound, the TGI came out at 90.2 µM in the assay with A498 renal, 49.5 µM in the assay with HL-60(TB) leukemia and 79.9 µM in the assay with ACHN renal.
For the compound `O=C(/C=C/c1ccccc1)CC(=O)CCC(=O)Nc1ccc(Cl)cc1`, the TGI in the assay with NCI-H226 lung, in the assay with OVCAR-5 ovarian, in the assay with RPMI-8226 leukemia, with SF-539 CNS, in the assay on COLO 205 colon and in the assay on HCT-116 colon was over 100 µM each time. Also, the TGI in the assay with HCC-2998 colon, in the assay on A498 renal, with HL-60(TB) leukemia and with ACHN renal was over 100 µM in each case.
Consider `CN(C)CCNC(=O)Cn1ccc(=O)c2c([N+](=O)[O-])cccc21`, for which the TGI in the assay on NCI-H226 lung, in the assay on OVCAR-5 ovarian, in the assay on RPMI-8226 leukemia, with SF-539 CNS, in the assay on COLO 205 colon and with HCT-116 colon was over 100 µM throughout. Further, the TGI in the assay with HCC-2998 colon, with A498 renal, in the assay with HL-60(TB) leukemia and in the assay with ACHN renal was over 100 µM throughout.
`O=C(N[C@@H](C[Se][Se]C[C@H](NC(=O)c1ccc(Br)cc1F)C(=O)O)C(=O)O)c1ccc(Br)cc1F`: the GI50 in the assay on NCI-H226 lung, in the assay on OVCAR-5 ovarian, with RPMI-8226 leukemia, in the assay with SF-539 CNS, in the assay on COLO 205 colon and in the assay on HCT-116 colon was over 100 µM each time. The GI50 in the assay on HCC-2998 colon, with A498 renal, in the assay with HL-60(TB) leukemia and with ACHN renal was over 100 µM each time. The TGI in the assay on NCI-H226 lung, in the assay with OVCAR-5 ovarian, with RPMI-8226 leukemia, with SF-539 CNS, with COLO 205 colon and in the assay with HCT-116 colon was over 100 µM throughout. Besides, the TGI in the assay on HCC-2998 colon, with A498 renal, in the assay on HL-60(TB) leukemia and in the assay on ACHN renal was over 100 µM in each case.
For `O=c1oc2ccc(I)cc2c(=O)n1-c1ccc(Cl)cc1F`, the GI50 in the assay on NCI-H226 lung was 1.96 µM; in the assay on OVCAR-5 ovarian, 3.96 µM; with RPMI-8226 leukemia it was 0.758 µM; in the assay with SF-539 CNS, 0.988 µM; in the assay with COLO 205 colon, 4.96 µM; with HCT-116 colon it was 1.21 µM. Moreover, the GI50 with HCC-2998 colon is 3.18 µM; with A498 renal it was 0.141 µM; with HL-60(TB) leukemia, 1.37 µM; in the assay with ACHN renal, 1.62 µM. Moreover, the TGI was 8.53 µM in the assay on NCI-H226 lung; 74.1 µM in the assay on OVCAR-5 ovarian; 6.12 µM with RPMI-8226 leukemia; 6.71 µM in the assay with SF-539 CNS; 19.9 µM in the assay on COLO 205 colon; 3.86 µM with HCT-116 colon. Also, the TGI in the assay on HCC-2998 colon was determined as 12.9 µM; with A498 renal it was 0.7 µM; with HL-60(TB) leukemia it was 7.51 µM; with ACHN renal, 12.8 µM.
As for `CN1/C(=C\C=C\C2=[N+](C)c3ccccc3C2(C)C)C(C)(C)c2ccccc21`, the GI50 is 0.103 µM in the assay on NCI-H226 lung; 0.37 µM in the assay on OVCAR-5 ovarian; 0.0119 µM in the assay on RPMI-8226 leukemia; 0.224 µM in the assay on SF-539 CNS; 0.0457 µM in the assay with COLO 205 colon; 0.0303 µM with HCT-116 colon. Besides, the GI50 in the assay with HCC-2998 colon is 0.041 µM; with A498 renal it was 0.0556 µM; with HL-60(TB) leukemia, 0.0271 µM; in the assay on ACHN renal, 0.268 µM. Also, the TGI with NCI-H226 lung is 2.39 µM; with OVCAR-5 ovarian it was 15.5 µM; with RPMI-8226 leukemia, 1.33 µM; with SF-539 CNS, 5.91 µM; in the assay with COLO 205 colon it was 0.257 µM; in the assay on HCT-116 colon, 1.11 µM. Moreover, the TGI in the assay with HCC-2998 colon is 1.25 µM; in the assay with A498 renal it was 0.979 µM; in the assay on HL-60(TB) leukemia, 0.217 µM; in the assay with ACHN renal, 3.15 µM.
Turning to `O=[N+]([O-])c1ccc(-c2ccc(-c3csc(Nc4ccccc4)n3)o2)cc1`, the TGI is over 84.1 µM with NCI-H226 lung; 31.6 µM with OVCAR-5 ovarian; over 67.4 µM in the assay with RPMI-8226 leukemia; 33.9 µM in the assay on SF-539 CNS; 58.2 µM in the assay on COLO 205 colon; 47 µM in the assay with HCT-116 colon. Besides, the TGI stood at 56.5 µM in the assay on HCC-2998 colon, 34.5 µM in the assay with A498 renal, 13.5 µM in the assay with HL-60(TB) leukemia and 31.1 µM in the assay on ACHN renal.
For `CC(=O)/C(=C/c1ccccc1F)C(=O)c1ccccc1`, the TGI in the assay with NCI-H226 lung is over 100 µM; with OVCAR-5 ovarian it was over 100 µM; in the assay with RPMI-8226 leukemia it was 44.4 µM; in the assay with SF-539 CNS it was over 100 µM; in the assay with COLO 205 colon it was over 100 µM; with HCT-116 colon, over 100 µM. For the same compound, the TGI with HCC-2998 colon was 45.1 µM; with A498 renal it was over 100 µM; with HL-60(TB) leukemia, over 100 µM; in the assay on ACHN renal it was over 100 µM.
Regarding `COc1cc(NCCCCCCCNC(C)C)c2nccc(C)c2c1`, the GI50 in the assay on NCI-H226 lung was 14.6 µM; in the assay on OVCAR-5 ovarian, 15.4 µM; in the assay with RPMI-8226 leukemia, 4.79 µM; in the assay on SF-539 CNS, 13.7 µM; in the assay on COLO 205 colon, 2.34 µM; with HCT-116 colon, 6.95 µM. The GI50 in the assay on HCC-2998 colon was 6.29 µM; in the assay on A498 renal it was 15.3 µM; in the assay on HL-60(TB) leukemia it was 6.94 µM; in the assay with ACHN renal, 14.2 µM. The TGI with NCI-H226 lung amounted to 34.3 µM; in the assay with OVCAR-5 ovarian, 29.7 µM; in the assay on RPMI-8226 leukemia, 20.4 µM; in the assay on SF-539 CNS, 26.8 µM; with COLO 205 colon, 6.54 µM; in the assay on HCT-116 colon it was 19.9 µM. In addition, the TGI with HCC-2998 colon was 19 µM; with A498 renal, 29.6 µM; in the assay with HL-60(TB) leukemia it was 23.9 µM; with ACHN renal, 27.8 µM.
